Experimental data from PubChem BioAssay (NCI).
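The compound was tested at five concentrations on cells cultured in 96-well plates, with a 48-hour exposure period. Abbreviation: GI50, concentration required for 50% inhibition of growth. TGI: total growth inhibition.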

Columns and labels:
Experiment in all cases: NCI tumour cell line growth inhibition, 48 h
NCI-H522 lung = system: NCI-H522 lung
SNB-75 CNS = system: SNB-75 CNS
T-47D breast = system: T-47D breast
ACHN renal = system: ACHN renal
IGROV1 ovarian = system: IGROV1 ovarian
SF-268 CNS = system: SF-268 CNS
SK-MEL-5 melanoma = system: SK-MEL-5 melanoma
KM12 colon = system: KM12 colon
RPMI-8226 leukemia = system: RPMI-8226 leukemia
CCRF-CEM leukemia = system: CCRF-CEM leukemia
LOX IMVI melanoma = system: LOX IMVI melanoma
A498 renal = system: A498 renal
TK-10 renal = system: TK-10 renal
MCF7 breast = system: MCF7 breast
UACC-257 melanoma = system: UACC-257 melanoma
HCT-15 colon = system: HCT-15 colon
RXF 393 renal = system: RXF 393 renal
NCI-H226 lung = system: NCI-H226 lung
M14 melanoma = system: M14 melanoma
NCI-H460 lung = system: NCI-H460 lung
MOLT-4 leukemia = system: MOLT-4 leukemia
EKVX NSCLC = system: EKVX NSCLC
BT-549 breast = system: BT-549 breast
COLO 205 colon = system: COLO 205 colon
SW-620 colon = system: SW-620 colon
SN12C renal = system: SN12C renal
HCC-2998 colon = system: HCC-2998 colon
SK-MEL-2 melanoma = system: SK-MEL-2 melanoma
MALME-3M melanoma = system: MALME-3M melanoma
U251 CNS = system: U251 CNS
OVCAR-3 ovarian = system: OVCAR-3 ovarian
UO-31 renal = system: UO-31 renal
NCI/ADR-RES ovarian = system: NCI/ADR-RES ovarian
HL-60(TB) leukemia = system: HL-60(TB) leukemia
HOP-92 NSCLC = system: HOP-92 NSCLC
OVCAR-4 ovarian = system: OVCAR-4 ovarian
HOP-62 NSCLC = system: HOP-62 NSCLC
UACC-62 melanoma = system: UACC-62 melanoma
SK-MEL-28 melanoma = system: SK-MEL-28 melanoma
PC-3 prostate = system: PC-3 prostate
OVCAR-8 ovarian = system: OVCAR-8 ovarian
SF-539 CNS = system: SF-539 CNS
NCI-H23 lung = system: NCI-H23 lung
DU-145 prostate = system: DU-145 prostate
SF-295 CNS = system: SF-295 CNS
786-0 renal = system: 786-0 renal
HT29 colon = system: HT29 colon
SNB-19 CNS = system: SNB-19 CNS
K-562 leukemia = system: K-562 leukemia
MDA-MB-435 = system: MDA-MB-435
OVCAR-5 ovarian = system: OVCAR-5 ovarian
A549 NSCLC = system: A549 NSCLC
SK-OV-3 ovarian = system: SK-OV-3 ovarian
HCT-116 colon = system: HCT-116 colon
MDA-MB-231 breast = system: MDA-MB-231 breast
HS 578T breast = system: HS 578T breast
SR leukemia = system: SR leukemia

CCCCCCCCCCCCCCCC(=O)Nc1ccn([C@@H]2O[C@H](CO)[C@@H](O)[C@@H]2C#N)c(=O)n1
GI50 (NCI-H522 lung): 13.1 µM
TGI (NCI-H522 lung): 33.3 µM
GI50 (SNB-75 CNS): > 58.6 µM
TGI (SNB-75 CNS): > 100 µM
GI50 (T-47D breast): 33.2 µM
TGI (T-47D breast): > 88.7 µM
GI50 (ACHN renal): 8.76 µM
TGI (ACHN renal): > 100 µM
GI50 (IGROV1 ovarian): 33.9 µM
TGI (IGROV1 ovarian): > 100 µM
GI50 (SF-268 CNS): 30.4 µM
TGI (SF-268 CNS): > 100 µM
GI50 (SK-MEL-5 melanoma): 15.2 µM
TGI (SK-MEL-5 melanoma): 28.8 µM
GI50 (KM12 colon): 33.7 µM
TGI (KM12 colon): > 100 µM
GI50 (RPMI-8226 leukemia): 49.8 µM
TGI (RPMI-8226 leukemia): > 100 µM
TGI (CCRF-CEM leukemia): > 100 µM
GI50 (LOX IMVI melanoma): 10.2 µM
TGI (LOX IMVI melanoma): 37.9 µM
GI50 (A498 renal): > 82 µM
TGI (A498 renal): > 100 µM
GI50 (TK-10 renal): > 100 µM
TGI (TK-10 renal): > 100 µM
GI50 (MCF7 breast): 3.29 µM
TGI (MCF7 breast): 30 µM
GI50 (UACC-257 melanoma): 46.3 µM
TGI (UACC-257 melanoma): > 100 µM
GI50 (HCT-15 colon): 50.8 µM
TGI (HCT-15 colon): > 100 µM
GI50 (RXF 393 renal): > 77.9 µM
TGI (RXF 393 renal): > 100 µM
GI50 (NCI-H226 lung): 30.7 µM
TGI (NCI-H226 lung): > 100 µM
GI50 (M14 melanoma): 11.8 µM
TGI (M14 melanoma): > 83.6 µM
GI50 (NCI-H460 lung): 2.38 µM
TGI (NCI-H460 lung): 24.5 µM
TGI (MOLT-4 leukemia): 26.2 µM
GI50 (EKVX NSCLC): > 52.7 µM
TGI (EKVX NSCLC): > 100 µM
GI50 (BT-549 breast): 34.9 µM
TGI (BT-549 breast): > 100 µM
GI50 (COLO 205 colon): 17.6 µM
TGI (COLO 205 colon): > 100 µM
GI50 (SW-620 colon): 26.7 µM
TGI (SW-620 colon): > 100 µM
GI50 (SN12C renal): 29.7 µM
TGI (SN12C renal): > 100 µM
GI50 (HCC-2998 colon): 14.5 µM
TGI (HCC-2998 colon): > 100 µM
GI50 (SK-MEL-2 melanoma): 42.3 µM
TGI (SK-MEL-2 melanoma): > 100 µM
GI50 (MALME-3M melanoma): 17.3 µM
TGI (MALME-3M melanoma): 60.4 µM
GI50 (U251 CNS): 20.8 µM
TGI (U251 CNS): > 100 µM
GI50 (OVCAR-3 ovarian): > 100 µM
TGI (OVCAR-3 ovarian): > 100 µM
GI50 (UO-31 renal): 14.5 µM
TGI (UO-31 renal): > 100 µM
GI50 (NCI/ADR-RES ovarian): 18.4 µM
TGI (NCI/ADR-RES ovarian): > 100 µM
GI50 (HL-60(TB) leukemia): 21.1 µM
TGI (HL-60(TB) leukemia): > 100 µM
GI50 (HOP-92 NSCLC): 5.52 µM
TGI (HOP-92 NSCLC): > 100 µM
GI50 (OVCAR-4 ovarian): 36.4 µM
TGI (OVCAR-4 ovarian): > 100 µM
GI50 (HOP-62 NSCLC): 20.5 µM
TGI (HOP-62 NSCLC): > 100 µM
GI50 (UACC-62 melanoma): 17.2 µM
TGI (UACC-62 melanoma): > 100 µM
GI50 (SK-MEL-28 melanoma): 33.1 µM
TGI (SK-MEL-28 melanoma): > 100 µM
GI50 (PC-3 prostate): 35.9 µM
TGI (PC-3 prostate): > 100 µM
GI50 (OVCAR-8 ovarian): 15.4 µM
TGI (OVCAR-8 ovarian): > 100 µM
GI50 (SF-539 CNS): > 100 µM
TGI (SF-539 CNS): > 100 µM
GI50 (NCI-H23 lung): 12 µM
TGI (NCI-H23 lung): > 84.5 µM
GI50 (DU-145 prostate): 9.03 µM
TGI (DU-145 prostate): > 100 µM
GI50 (SF-295 CNS): 21.5 µM
TGI (SF-295 CNS): > 100 µM
GI50 (786-0 renal): 10.1 µM
TGI (786-0 renal): > 100 µM
GI50 (HT29 colon): 35.8 µM
TGI (HT29 colon): > 100 µM
GI50 (SNB-19 CNS): 6.02 µM
TGI (SNB-19 CNS): > 100 µM
GI50 (K-562 leukemia): 14.6 µM
TGI (K-562 leukemia): > 52.4 µM
GI50 (MDA-MB-435): 39.5 µM
TGI (MDA-MB-435): > 100 µM
GI50 (OVCAR-5 ovarian): 51.6 µM
TGI (OVCAR-5 ovarian): > 100 µM
GI50 (A549 NSCLC): 11.7 µM
TGI (A549 NSCLC): 30.3 µM
GI50 (SK-OV-3 ovarian): 45.6 µM
TGI (SK-OV-3 ovarian): > 100 µM
GI50 (HCT-116 colon): 4.77 µM
TGI (HCT-116 colon): > 80.6 µM
GI50 (MDA-MB-231 breast): 25.9 µM
TGI (MDA-MB-231 breast): > 96.4 µM
GI50 (HS 578T breast): > 100 µM
TGI (HS 578T breast): > 100 µM
GI50 (SR leukemia): 8.01 µM
TGI (SR leukemia): 98.1 µM
